The subject of one experiment is wild oats. The experiment can be described thus: Preemergent control of plant species. In kind it is in vivo. The conditions noted are these: Avena fatua, pre-emergence, 336 h; 0.25 lb/acre; read-out: percent preemergent control. As to the method: The seeds of various species of plants were planted in beds of good agricultural soil in a greenhouse. A number of compositions of the present invention, generally in the nature of an aqueous emulsion, were applied at rates listed in the table so as to deposit a predetermined amount of active ingredients uniformly throughout the surface of the bed. Another seed bed was treated only with water to serve as a control. After treatment the seed beds were maintained for two weeks under greenhouse conditions conducive for good plant growth and watered as necessary. Control refers to the reduction in growth compared to the observed results of the same untreated species.

A further experiment relates to cotton. The experiment can be described thus: Preemergent control of plant species. In kind it is in vivo, Gossypium spp. The note with it: Gossypium hirsutum, pre-emergence, 336 h; 0.25 lb/acre; read-out: percent preemergent control. In a few lines: (§1)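 Seeds planted in good agricultural soil beds; active ingredients then applied to the bed surface as aqueous emulsion at listed rates. Beds kept two weeks in greenhouse with watering. Control scored against water-treated beds.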

Another experiment has as its system soybean. The experiment can be described thus: Preemergent control of plant species. The class given is in vivo, Glycine max. The note with it: Glycine max, pre-emergence, 336 h; 0.25 lb/acre; read-out: percent preemergent control. The gist of the method:
as §1

A further experiment has as its system barnyardgrass. The experiment in a line: Preemergent control of plant species. The class given is in vivo, Echinochloa crusgalli. The conditions noted are these: Echinochloa crus-galli, pre-emergence, 336 h; 0.25 lb/acre; read-out: percent preemergent control. The gist of the method:
as §1

The test system of a further experiment is wheat. The experiment in a line: Preemergent control of plant species. In kind it is in vivo, Triticum aestivum. The note with it: Triticum aestivum, pre-emergence, 336 h; 0.25 lb/acre; read-out: percent preemergent control. In a few lines:
as §1

For a further experiment, the system named is rice. The experiment can be described thus: Preemergent control of plant species. In kind it is in vivo, Oryza sativa. The note with it: Oryza sativa, pre-emergence, 336 h; 0.25 lb/acre; read-out: percent preemergent control. In a few lines: as §1
The next experiment deals with yellow foxtail. The experiment can be described thus: Preemergent control of plant species. The conditions noted are these: Setaria, pre-emergence, 336 h; 0.25 lb/acre; read-out: percent preemergent control. The class given is in vivo, Setaria lutescens. The gist of the method:
as §1

In another experiment the test system is johnson grass. The experiment in a line: Preemergent control of plant species. The class given is in vivo, Sorghum halepense. The note with it: Sorghum halepense, pre-emergence, 336 h; 0.25 lb/acre; read-out: percent preemergent control. The gist of the method:
as §1

A further experiment concerns jimsonweed. The experiment can be described thus: Preemergent control of plant species. In kind it is in vivo, Datura stramonium. The conditions noted are these: Datura stramonium, pre-emergence, 336 h; 0.25 lb/acre; read-out: percent preemergent control. In a few lines:
as §1

A further experiment deals with corn. The experiment in a line: Preemergent control of plant species. The class given is in vivo, Zea mays. The note with it: Zea mays, pre-emergence, 336 h; 0.25 lb/acre; read-out: percent preemergent control. The gist of the method:
as §1

A further experiment has as its system annual morning glory. The experiment can be described thus: Preemergent control of plant species. In kind it is in vivo, Ipomoea spp. The note with it: Ipomoea, pre-emergence, 336 h; 0.25 lb/acre; read-out: percent preemergent control. The gist of the method:
as §1

In another experiment the test system is sorghum. The experiment can be described thus: Preemergent control of plant species. The class given is in vivo, Sorghum vulgare. The note with it: Sorghum, pre-emergence, 336 h; 0.25 lb/acre; read-out: percent preemergent control. The gist of the method:
as §1

The next experiment concerns rape. The experiment in a line: Preemergent control of plant species. In kind it is in vivo, Brassica napus. The conditions noted are these: Brassica napus, pre-emergence, 336 h; 0.25 lb/acre; read-out: percent preemergent control. The gist of the method:
as §1

Another experiment has as its system velvetleaf. The experiment in a line: Preemergent control of plant species. In kind it is in vivo, Abutilon theophrasti. The note with it: Abutilon theophrasti, pre-emergence, 336 h; 0.25 lb/acre; read-out: percent preemergent control. The gist of the method: as §1
The test system of the next experiment is yellow nutsedge. The experiment can be described thus: Preemergent control of plant species. In kind it is in vivo, Cyperus esculentus. The conditions noted are these: Cyperus, pre-emergence, 336 h; 0.25 lb/acre; read-out: percent preemergent control. In a few lines: as §1
In another experiment the test system is sugar beet. The experiment in a line: Preemergent control of plant species. The conditions noted are these: Beta vulgaris, pre-emergence, 336 h; 0.25 lb/acre; read-out: percent preemergent control. In kind it is in vivo, Beta saccharifera. The gist of the method: as §1
Experiment [1] relates to nitrification of ammonium nitrogen. The experiment can be described thus: Suppression of nitrification of ammonium nitrogen in soil. The conditions noted are these: 27° C. The gist of the method:
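Value is % NH4-N remaining after a two-week, 27° C incubation of treated soil held at 1/3 bar tension moisture. Nitrate was measured with an ion-selective electrode after extraction with ammonium sulfate solution and 10 min shaking.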

In the case of `CCOCCOC(=O)c1cccc(C)c1NS(=O)(=O)c1nc2nc(C)cc(C)n2n1` [Compound 72], the pest or weed control at 280.212 g/ha in the experiment on wild oats came to 90%; with barnyardgrass, 30%; in the experiment on yellow foxtail it was 50%; with johnson grass it was 50%; in the experiment with jimsonweed, 100%; in the experiment on annual morning glory, 10%. Moreover, the values for the pest or weed control at 280.212 g/ha in the experiment on velvetleaf and in the experiment with yellow nutsedge were 60% and 100%, respectively. Further, the plant injury at 280.212 g/ha with cotton amounted to 40%; in the experiment on soybean, 90%; in the experiment on wheat, 90%; with rice, 70%; in the experiment on corn, 90%; in the experiment on sorghum, 80%. Besides, the plant injury at 280.212 g/ha in the experiment on rape turned out to be 100%; in the experiment with sugar beet it was 90%.
Take `COC(=O)c1ccc(C)c(NS(=O)(=O)c2nc3nc(C)cc(C)n3n2)c1Br` [Compound 86, methyl 3-amino-2-bromo-4-methyl-N-(5,7-dimethyl-1,2,4-triazolo[1,5-a]pyrimidine-2-sulfonyl)benzoate]: the pest or weed control at 280.212 g/ha in the experiment with wild oats is 0%; with barnyardgrass, 0%; in the experiment on yellow foxtail, 0%; in the experiment with johnson grass, 0%; in the experiment with jimsonweed, 100%; in the experiment with annual morning glory, 0%. In addition, the pest or weed control at 280.212 g/ha in the experiment with velvetleaf and with yellow nutsedge was 0% throughout. The plant injury at 280.212 g/ha was found to be 0% in the experiment with cotton; 20% with soybean; 0% in the experiment on wheat; 0% with rice; 0% with corn; 0% in the experiment with sorghum. The plant injury at 280.212 g/ha with rape and in the experiment with sugar beet was 100% in each case.
Take `CC(=O)OCc1cccc(Cl)c1NS(=O)(=O)c1nc2nc(C)cc(C)n2n1` [Compound 94, 5,7-dimethyl-N-(2-acetoxymethyl-6-chlorophenyl)-1,2,4-triazolo[1,5-a]pyrimidine-2-sulfonamide]: the pest or weed control at 280.212 g/ha in the experiment with wild oats, with barnyardgrass, with yellow foxtail, in the experiment on johnson grass, in the experiment with jimsonweed and in the experiment with annual morning glory was 0% throughout. The pest or weed control at 280.212 g/ha in the experiment on velvetleaf and in the experiment on yellow nutsedge was 0% each time. In addition, the plant injury at 280.212 g/ha in the experiment with cotton came out at 60%; in the experiment on soybean it was 50%; in the experiment with rice, 0%; in the experiment with corn, 0%; with sorghum, 0%; with rape it was 100%. The plant injury at 280.212 g/ha in the experiment on sugar beet stood at 0%. Also, the “% NH4-N Remaining After 2 Weeks Incubation” value is given as 28% in experiment [1] (0.06 ppm), 48% in experiment [1] (0.25 ppm), 56% in [1] (1 ppm) and 84% in [1] (4 ppm).
`Cc1ccn2nc(S(=O)(=O)Nc3c(C)cccc3C#N)nc2n1` [Compound 165]: the pest or weed control at 280.212 g/ha in the experiment on wild oats was 0%; in the experiment on barnyardgrass it was 60%; with yellow foxtail, 90%; in the experiment on johnson grass, 0%; in the experiment on jimsonweed, 90%; in the experiment on annual morning glory, 60%. Besides, the pest or weed control at 280.212 g/ha came to 30% with velvetleaf and 90% with yellow nutsedge. Besides, the plant injury at 280.212 g/ha in the experiment on cotton turned out to be 90%; in the experiment on soybean, 10%; in the experiment with wheat, 0%; in the experiment on rice it was 0%; in the experiment with corn, 0%; with sorghum, 60%. Moreover, the plant injury at 280.212 g/ha in the experiment on rape amounted to 75%; in the experiment with sugar beet, 90%.
Take `CC(=O)c1cccc(C)c1NS(=O)(=O)c1nc2nc(C)ccn2n1` [Compound 166]: the pest or weed control at 280.212 g/ha in the experiment on wild oats was 30%; with barnyardgrass, 80%; with yellow foxtail it was 80%; in the experiment on johnson grass it was 20%; with jimsonweed it was 90%; with annual morning glory, 95%. Moreover, the pest or weed control at 280.212 g/ha in the experiment on velvetleaf and with yellow nutsedge was 100% in each case. The plant injury at 280.212 g/ha was determined as 100% in the experiment with cotton; 80% in the experiment on soybean; 20% in the experiment on wheat; 40% with rice; 10% in the experiment with corn; 80% in the experiment with sorghum. Further, the plant injury at 280.212 g/ha in the experiment on rape and in the experiment with sugar beet was 100% in each case.
For the compound `Cc1ccnc2nc(S(=O)(=O)Nc3c(F)cccc3Cl)nn12` [Compound 181], the pest or weed control at 280.212 g/ha stood at 40% with wild oats; 20% with barnyardgrass; 80% in the experiment with yellow foxtail; 60% in the experiment on johnson grass; 98% in the experiment on jimsonweed; 80% with annual morning glory. The figures for the pest or weed control at 280.212 g/ha in the experiment on velvetleaf and in the experiment on yellow nutsedge were 98% and 50%, respectively. The plant injury at 280.212 g/ha in the experiment with cotton came out at 98%; in the experiment on soybean it was 80%; with wheat, 0%; with rice it was 30%; in the experiment on corn, 0%; in the experiment with sorghum, 95%. For the same compound, the plant injury at 280.212 g/ha in the experiment with rape came out at 100%; in the experiment on sugar beet it was 98%.
Consider `Cc1ccnc2nc(S(=O)(=O)Nc3c(F)cccc3F)nn12` [Compound 185], for which the pest or weed control at 280.212 g/ha is 0% with wild oats; 20% in the experiment with barnyardgrass; 90% in the experiment on johnson grass; 90% in the experiment on jimsonweed; 80% in the experiment on annual morning glory; 100% with velvetleaf. Also, in the experiment on yellow nutsedge, the pest or weed control at 280.212 g/ha was determined as 0%. Besides, the plant injury at 280.212 g/ha in the experiment with cotton was 98%; with soybean, 70%; in the experiment with wheat it was 0%; in the experiment on rice, 20%; in the experiment on corn, 0%; with sorghum it was 90%. In addition, the figures for the plant injury at 280.212 g/ha with rape and with sugar beet were 100% and 98%, respectively.
On to `Cc1ccn2nc(S(=O)(=O)N(C(=O)C3CC3)c3c(F)cccc3F)nc2n1` [Compound 289], for which the pest or weed control at 280.212 g/ha with wild oats, in the experiment on barnyardgrass, in the experiment with yellow foxtail, in the experiment with johnson grass, in the experiment on jimsonweed and with annual morning glory was 100% in each case. For the same compound, the pest or weed control at 280.212 g/ha with velvetleaf and in the experiment with yellow nutsedge was 100% in each case. Further, the plant injury at 280.212 g/ha was determined as 100% with cotton; 50% with soybean; 80% in the experiment with wheat; 95% with corn; 100% in the experiment on sorghum; 100% in the experiment with rape. Besides, the plant injury at 280.212 g/ha in the experiment on sugar beet turned out to be 100%.

Values taken from patent US4740233A, “Substituted 1,2,4-triazolo[1,5-a]-pyrimidine-2-sulfonamides and compositions and methods of controlling undesired vegetation and suppressing the nitrification of ammonium nitrogen in soil” (The Dow Chemical Company, priority 1986, dated 1988).
